The values below come from patent publication US9758492B2, “IDO inhibitors” (Bristol-Myers Squibb Company, priority 2013, dated 2017).

A word on the IC50: it is the point on the concentration scale where inhibition reaches its midpoint.

Structures are written as SMILES.

The target in the experiment is IDO (Homo sapiens, UniProt P14902). Kind of experiment: LLE_IDO_ABS_DR (IDO assay).
Sequence of IDO (P14902 whole entry): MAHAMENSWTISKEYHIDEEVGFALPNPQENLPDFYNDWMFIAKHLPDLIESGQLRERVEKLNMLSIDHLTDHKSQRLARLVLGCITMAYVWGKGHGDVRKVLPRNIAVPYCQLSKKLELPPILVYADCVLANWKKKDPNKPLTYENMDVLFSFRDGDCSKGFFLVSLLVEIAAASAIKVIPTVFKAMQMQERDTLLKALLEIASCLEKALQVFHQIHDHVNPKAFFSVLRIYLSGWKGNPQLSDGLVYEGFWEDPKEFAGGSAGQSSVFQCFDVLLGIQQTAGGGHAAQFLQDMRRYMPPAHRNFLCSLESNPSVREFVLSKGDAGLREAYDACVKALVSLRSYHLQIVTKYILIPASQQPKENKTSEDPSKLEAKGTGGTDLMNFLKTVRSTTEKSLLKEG
As for `O=C(Nc1cc(-c2ccccc2-c2nnn[nH]2)ccc1N(CCC(F)(F)F)Cc1ccc(C(F)(F)F)cc1)Nc1ccccc1C(F)(F)F` [Example 328, 1-(2′-(1H-tetrazol-5-yl)-4-((4-(trifluoromethyl)benzyl)(3,3,3-trifluoropropyl)amino)-[1,1′-biphenyl]-3-yl)-3-(2-(trifluoromethyl)phenyl)urea], 390 nM corresponded to half-maximal inhibition (IC50).
`Cc1ccc(NC(=O)Nc2cc(-c3ccccc3-c3nnn[nH]3)ccc2N(CCC(F)(F)F)Cc2ccc(C(F)(F)F)cc2)cc1` [Example 329, 1-(2′-(1H-tetrazol-5-yl)-4-((4-(trifluoromethyl)benzyl)(3,3,3-trifluoropropyl)amino)-[1,1′-biphenyl]-3-yl)-3-(p-tolyl)urea] yielded an IC50 of 4.03 nM.
To `O=C(Nc1ccc(F)cc1F)Nc1cc(-c2ccccc2-c2nnn[nH]2)ccc1N(CCC(F)(F)F)Cc1ccc(C(F)(F)F)cc1` [Example 330, 1-(2′-(1H-tetrazol-5-yl)-4-((4-(trifluoromethyl)benzyl)(3,3,3-trifluoropropyl)amino)-[1,1′-biphenyl]-3-yl)-3-(2,4-difluorophenyl) urea] belongs 20 nM.
With `O=C(Nc1ccc(OC(F)(F)F)cc1)Nc1cc(-c2ccccc2-c2nnn[nH]2)ccc1N(CCc1ccccc1)CCC(F)(F)F` [Example 331, 1-(4-(phenethyl(3,3,3-trifluoropropyl)amino)-2′-(1H-tetrazol-5-yl)-[1,1′-biphenyl]-3-yl)-3-(4-(trifluoromethoxy)phenyl)urea], half-maximal inhibition (IC50) required 160 nM. This IC50 is about 8-fold higher than that of the compound before.
In the case of `Cc1ccc(NC(=O)Nc2cc(-c3ccccc3-c3nnn[nH]3)ccc2N(CCc2ccccc2)CCC(F)(F)F)cc1` [Example 334, 1-(4-(phenethyl(3,3,3-trifluoropropyl)amino)-2′-(1H-tetrazol-5-yl)-[1,1′-biphenyl]-3-yl)-3-(p-tolyl)urea], 20 nM corresponded to half-maximal inhibition (IC50).
To `O=C(Nc1cc(-c2ccccc2-c2nnn[nH]2)ccc1N(CCC(F)(F)F)Cc1ccc(Cl)cc1Cl)Nc1ccccc1C(F)(F)F` [Example 335, 1-(4-((2,4-dichlorobenzyl)(3,3,3-trifluoropropyl)amino)-2′-(1H-tetrazol-5-yl)-[1,1′-biphenyl]-3-yl)-3-(2-(trifluoromethyl)phenyl)urea] belongs 1080 nM.
To `O=C(Nc1ccc(F)cc1F)Nc1cc(-c2ccccc2-c2nnn[nH]2)ccc1N(CCC(F)(F)F)Cc1ccc(Cl)cc1Cl` [Example 336, 1-(4-((2,4-dichlorobenzyl)(3,3,3-trifluoropropyl)amino)-2′-(1H-tetrazol-5-yl)-[1,1′-biphenyl]-3-yl)-3-(2,4-difluorophenyl) urea] belongs 340 nM; to `O=C(Nc1ccc(OC(F)(F)F)cc1)Nc1cc(-c2ccccc2-c2nnn[nH]2)ccc1N(CCC(F)(F)F)Cc1ccc(Cl)cc1Cl` [Example 337, 1-(4-((2,4-dichlorobenzyl)(3,3,3-trifluoropropyl)amino)-2′-(1H-tetrazol-5-yl)-[1,1′-biphenyl]-3-yl)-3-(4-(trifluoromethoxy)phenyl)urea], 410 nM; to `O=C(Nc1cc(-c2ccccc2-c2nnn[nH]2)ccc1N(CCC(F)(F)F)Cc1ccc(F)cc1C(F)(F)F)Nc1ccccc1C(F)(F)F` [Example 338, 1-(4-((4-fluoro-2-(trifluoromethyl)benzyl)(3,3,3-trifluoropropyl)amino)-2′-(1H-tetrazol-5-yl)-[1,1′-biphenyl]-3-yl)-3-(2-(trifluoromethyl)phenyl)urea], 490 nM.
To `O=C(Nc1ccc(OC(F)(F)F)cc1)Nc1cc(-c2ccccc2-c2nnn[nH]2)ccc1N(CCC(F)(F)F)Cc1ccc(F)cc1C(F)(F)F` [Example 339, 1-(4-((4-fluoro-2-(trifluoromethyl)benzyl)(3,3,3-trifluoropropyl)amino)-2′-(1H-tetrazol-5-yl)-[1,1′-biphenyl]-3-yl)-3-(4-(trifluoromethoxy)phenyl)urea] belongs 160 nM; to `O=C(Nc1cc(-c2ccccc2-c2nnn[nH]2)ccc1N(CCC(F)(F)F)Cc1ccc(OC(F)(F)F)cc1)Nc1ccccc1C(F)(F)F` [Example 342, 1-(2′-(1H-tetrazol-5-yl)-4-((4-(trifluoromethoxy)benzyl)(3,3,3-trifluoropropyl)amino)-[1,1′-biphenyl]-3-yl)-3-(2-(trifluoromethyl)phenyl)urea], 170 nM; to `O=C(Nc1ccc(OC(F)(F)F)cc1)Nc1cc(-c2ccccc2-c2nnn[nH]2)ccc1N(CCC(F)(F)F)Cc1ccccn1` [Example 343, 1-(4-((pyridin-2-ylmethyl)(3,3,3-trifluoropropyl)amino)-2′-(1H-tetrazol-5-yl)-[1,1′-biphenyl]-3-yl)-3-(4-(trifluoromethoxy)phenyl)urea], 230 nM.
Consider `O=C(Nc1cc(-c2ccccc2-c2nnn[nH]2)ccc1N(CCC(F)(F)F)Cc1ccccn1)Nc1ccccc1C(F)(F)F` [Example 345, 1-(4-((pyridin-2-ylmethyl)(3,3,3-trifluoropropyl)amino)-2′-(1H-tetrazol-5-yl)-[1,1′-biphenyl]-3-yl)-3-(2-(trifluoromethyl)phenyl)urea], for which the IC50 came to 820 nM.
To `O=C(Nc1ccc(C2CC2)cc1)Nc1cc(-c2ccccc2-c2nnn[nH]2)ccc1N1CCC(F)(F)C1` [Example 347, 1-(4-cyclopropylphenyl)-3-(4-(3,3-difluoropyrrolidin-1-yl)-2′-(1H-tetrazol-5-yl)-[1,1′-biphenyl]-3-yl)urea] belongs 5260 nM; to `O=C(Nc1ccc(C2CC2)cc1)Nc1cc(-c2ccccc2-c2nnn[nH]2)ccc1N(CCC(F)(F)F)Cc1ccc(F)cc1` [Example 350, 1-(4-cyclopropylphenyl)-3-(4-((4-fluorobenzyl)(3,3,3-trifluoropropyl)amino)-2′-(1H-tetrazol-5-yl)-[1,1′-biphenyl]-3-yl)urea], 250 nM; to `O=C(Nc1ccc(C2CC2)c(F)c1)Nc1cc(-c2ccccc2-c2nnn[nH]2)ccc1N(CCC(F)(F)F)Cc1ccc(Cl)cc1Cl` [Example 351, 1-(4-cyclopropyl-3-fluorophenyl)-3-(4-((2,4-dichlorobenzyl)(3,3,3-trifluoropropyl)amino)-2′-(1H-tetrazol-5-yl)-[1,1′-biphenyl]-3-yl)urea], 350 nM.
As for `O=C(Nc1ccc(C2CC2)c(F)c1)Nc1cc(-c2ccccc2-c2nnn[nH]2)ccc1N(CCC(F)(F)F)Cc1ccccn1` [Example 354, 1-(4-cyclopropyl-3-fluorophenyl)-3-(4-((pyridin-2-ylmethyl)(3,3,3-trifluoropropyl)amino)-2′-(1H-tetrazol-5-yl)-[1,1′-biphenyl]-3-yl)urea], the 50% inhibitory concentration (IC50) amounted to 120 nM.
The value for `Cc1ccc(NC(=O)Nc2cc(-c3ccccc3-c3nnn[nH]3)ccc2N2CCCc3ccccc32)cn1` [Example 362, 1-(4-(3,4-Dihydroquinolin-1(2H)-yl)-2′-(1H-tetrazol-5-yl)-[1,1′-biphenyl]-3-yl)-3-(6-methylpyridin-3-yl)urea] was 5490 nM; that for `O=C(Nc1ccc(OC(F)(F)F)cc1)Nc1cc(-c2ccccc2-c2nnn[nH]2)ccc1N1CCCc2ccccc21` [Example 363, 1-(4-(3,4-Dihydroquinolin-1(2H)-yl)-2′-(1H-tetrazol-5-yl)-[1,1′-biphenyl]-3-yl)-3-(4-(trifluoromethoxy)phenyl)urea] was 900 nM; that for `O=C(Nc1ccc(C(F)(F)F)cc1F)Nc1cc(-c2ccccc2-c2nnn[nH]2)ccc1N1CCCc2ccccc21` [Example 364, 1-(4-(3,4-Dihydroquinolin-1(2H)-yl)-2′-(1H-tetrazol-5-yl)-[1,1′-biphenyl]-3-yl)-3-(2-fluoro-4-(trifluoromethyl)phenyl)urea] was 4670 nM.
`O=C(Nc1ccc(F)nc1)Nc1cc(-c2ccccc2-c2nnn[nH]2)ccc1N1CCCc2ccccc21` [Example 365, 1-(4-(3,4-Dihydroquinolin-1(2H)-yl)-2′-(1H-tetrazol-5-yl)-[1,1′-biphenyl]-3-yl)-3-(6-fluoropyridin-3-yl)urea] came in with an IC50 of 5060 nM. This IC50 and that of the compound before are within 1.5-fold of each other.
In the case of `Cc1cc(NC(=O)Nc2cc(-c3ccccc3-c3nnn[nH]3)ccc2N2CCCc3ccccc32)on1` [Example 366, 1-(4-(3,4-Dihydroquinolin-1(2H)-yl)-2′-(1H-tetrazol-5-yl)-[1,1′-biphenyl]-3-yl)-3-(3-methylisoxazol-5-yl)urea], the IC50 worked out at 5010 nM.
The value for `Cc1ccc(NC(=O)Nc2cc(-c3cc(F)ccc3C(=O)O)ccc2N(CCC(C)(C)O)Cc2ccc(Cl)cc2)cc1` [Example 374] was 6840 nM.
With `Cc1ccc(NC(=O)Nc2cc(-c3ccccc3-c3nnn[nH]3)ccc2N(CCC(C)(C)O)Cc2ccc(Cl)cc2)cc1` [Example 375], the IC50 was found to be 4740 nM.
To `Cc1ccc(NC(=O)Nc2cc(-c3ccccc3-c3nnn[nH]3)ccc2N(CC(C)C)CC2CC(F)(F)C2)cc1` [Example 381] belongs 110 nM; to `Cc1ccc(NC(=O)Nc2cc(-c3ccccc3-c3nnn[nH]3)ccc2N2CCC(c3ccc(F)cc3)C2)cc1` (centres unmarked) [Example 386], 40 nM; to `Cc1ccc(NC(=O)Nc2cc(-c3ccccc3-c3nnn[nH]3)ccc2N2CCC(c3ccc(F)cc3)C2)cn1` (centres unmarked) [Example 387], 2230 nM.
The value for `Cc1ccc(NC(=O)Nc2cc(-c3ccccc3-c3nnn[nH]3)ccc2N2CCC(c3nc(C)no3)C2)cn1` (centres unmarked) [Example 388] was 10000 nM.
To `Cc1ccc(NC(=O)Nc2cc(-c3ccccc3-c3nnn[nH]3)ccc2N2CCC(c3nc(C)no3)C2)cc1` (centres unmarked) [Example 389] belongs 620 nM; to `Cc1noc(C2CCN(c3ccc(-c4ccccc4-c4nnn[nH]4)cc3NC(=O)Nc3ccc(C(F)(F)F)cc3F)C2)n1` (centres unmarked) [Example 390], 1590 nM.
Compound `Cc1ccc(NC(=O)Nc2cc(-c3ccccc3-c3nnn[nH]3)ccc2N(Cc2ccc(Cl)cc2)C2CCCCC2)cc1` [Example 468] had an IC50 of 80 nM.
The value for `Cc1ccc(NC(=O)Nc2cc(-c3cc(F)ccc3C(=O)O)ccc2N(Cc2ccc(Cl)cc2)C2CCCCC2)cc1` [Example 469] was 720 nM.
The value for `O=C(Nc1ccccc1F)Nc1cc(-c2cc(F)ccc2C(=O)O)ccc1N(Cc1ccc(Cl)cc1)C1CCCCC1` [Example 470] was 190 nM; that for `C=C(C)CN(CC(F)(F)F)c1ccc(-c2ccccc2C(=O)O)cc1NC(=O)Nc1ccc(C)cc1` [Example 471] was 40 nM.
To `Cc1ccc(NC(=O)Nc2cc(-c3ccccc3C(=O)O)ccc2N(CC(C)C)CC(F)(F)F)cc1` [Example 474] belongs 90 nM.
